Measurements reported in publication PMC11206922, “Novel Histone Deacetylase (HDAC) Inhibitor Induces Apoptosis and Suppresses Invasion via E-Cadherin Upregulation in Pancreatic Ductal Adenocarcinoma (PDAC)” (Pharmaceuticals, 2024).

Target: T1, HDAC 2 (Homo sapiens, UniProt Q92769)
T1 construct: gene HDAC2
Test: HDAC enzyme inhibition assay (details not shown)
Type: biochemical

T1 sequence (Q92769 whole entry): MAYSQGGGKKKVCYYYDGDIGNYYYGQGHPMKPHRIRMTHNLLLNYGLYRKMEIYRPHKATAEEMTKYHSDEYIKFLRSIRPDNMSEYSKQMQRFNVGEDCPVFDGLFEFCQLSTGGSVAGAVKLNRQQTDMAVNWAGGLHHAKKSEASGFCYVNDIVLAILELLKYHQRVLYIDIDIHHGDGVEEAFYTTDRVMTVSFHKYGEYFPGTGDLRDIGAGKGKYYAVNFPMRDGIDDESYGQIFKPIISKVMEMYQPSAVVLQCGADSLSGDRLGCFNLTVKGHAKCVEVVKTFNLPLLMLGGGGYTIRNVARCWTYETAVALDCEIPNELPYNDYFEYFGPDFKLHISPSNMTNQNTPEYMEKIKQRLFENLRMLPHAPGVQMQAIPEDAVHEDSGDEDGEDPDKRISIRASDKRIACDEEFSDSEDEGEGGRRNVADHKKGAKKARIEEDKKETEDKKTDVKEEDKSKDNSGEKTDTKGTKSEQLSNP

`COc1cc(NC(=O)NCCCCCCC(=O)NO)c2nc(OC)cc(C)c2c1` [compound 8, MPK544] showed an IC50 of 58 ± 20 nM.
